Read-outs that look alike come from different tables or passages of the source.
What was measured:
healthy individuals = conditions: 0.1 ml cream on 1 inch^2 of dorsum of non-dominant hand, single application, rated after 6 hours, 0-10 VAS, 40 volunteers
[1] = test system: patients with osteoarthritis pain
[2] = test system: patients with osteoarthritis pain; test: Randomised, double blind, placebo controlled study in painful osteoarthritis: pain scores, analgesic consumption, desire to continue (Example 2); type: in vivo, human; conditions: for Reduction in pain score (VAS): after 42 days versus baseline pain score 4.2 (mean of days 1-4); for Reduction in pain score (VAS) compared to placebo: after 42 days, decrease beyond that given by cream vehicle alone; for percentage of patients who wished to continue with treatment: after six weeks; for Tablets per day after treatment / Reduction in daily tablet consumption: analgesic use; for Tablets per day after treatment: at beginning of treatment 4 tablets per day; for Mean Pain Score after 42 days (VAS): cream four times daily for six weeks to one painful joint, 0-10 VAS, baseline pain score 4.2; for Patients not wishing to continue / Patients wishing to continue: desire to continue with current treatment after six weeks; for Reduction in daily tablet consumption: from initial mean of 4 tablets daily
patients = conditions: cited from earlier work

Row | SMILES | VAS: median (range), burning discomfort (healthy individuals) [VAS] | VAS: median (range), burning discomfort (healthy individuals; listed as D) | initial application discomfort ([1]; equal effect to placebo) | Application discomfort - changes resulting from baseline score, Coefficient ([1]; human, in vivo) | Reduction in pain score (VAS) [2] [VAS] | Reduction in pain score (VAS) compared to placebo [2] [VAS] | percentage of patients who wished to continue with treatment [2] [%] | Tablets per day after treatment [2] [tablets per day] | Mean Pain Score after 42 days (VAS) [2] [VAS] | Patients not wishing to continue [2] [patients] | Patients wishing to continue [2] [patients] | VAS: median (range), burning discomfort (healthy individuals; listed as C) | Application discomfort - Baseline scores versus treatment, VAS ([1]; regression estimate of baseline discomfort relative to the other groups, 10 cm VAS) [VAS] | Reduction in daily tablet consumption [2] [tablets] | Reduction in daily tablet consumption ([2]; listed as capsaicin) [tablets] | patients who suffered burning after application (patients; 0.025% capsaicin, Watson and colleagues, Clinical Therapeutics 1993) | patients who suffered burning discomfort after application (patients; 0.075% capsaicin, The Capsaicin Study Group)
1 | O=[N+]([O-])OCC(CO[N+](=O)[O-])O[N+](=O)[O-] [GTN, Glyceryl trinitrate] | 0 | 0 (0-2) VAS | marginal initial discomfort | 0.33 | 0.59 | 0.37 | 27.5 | 3.52 | 3.61 | 34 | 11 | – | – | – | – | – | –
2 | COc1cc(CNC(=O)CCCC/C=C/C(C)C)ccc1O [Capsaicin, N-(4-hydroxy-3-methoxybenzyl)-8-methylnon-trans-6-enamide] | 3 | – | – | – | 0.5 | 0.28 | 24.4 | 3.72 | 3.70 | 29 | 11 | 3 (0-7) VAS | 2.1 | 0.28 | 0.28 | 9 of 33 | 87 of 138

From patent US20020035157A1, “Pharmaceutical compositions” (priority 1999, published 2002)
